{"source": "patent US7723473B2", "about": "“Peptide antagonists of TGF-beta family members and therapeutic uses thereof” (St. Louis University, priority 1997, dated 2010)", "key": {"TGF-β receptors": {"system": "TGF-β receptors", "assay": "Inhibition of specific binding of 125I-TGF-β1 to TGF-β receptors in mink lung epithelial cells", "conditions": "peptide at 34 μM", "experimental": "Specific binding of ^125I-labeled TGF-β1, TGF-β2, and TGF-β3 (^125I-TGF-β1, ^125I-TGF-β2, and ^125I-TGF-β3) to TGF-β receptors in mink lung epithelial cells. ^125I-TGF-β1, ^125I-TGF-β2, and ^125I-TGF-β3 were prepared by iodination of TGF-β1, TGF-β2, and TGF-β3 with Na^125I as described previously (Ref. 7). The specific radioactivities of ^125I-TGF-β1, ^125I-TGF-β2, and ^125I-TGF-β3 were 1-3×10^5 cpm/ng. Mink lung epithelial cells were grown on 24-well clustered dishes to near confluence in Dulbecco's modified Eagle medium (DMEM) containing 10% fetal calf serum. The epithelial cells were incubated with 0.1 nM ^125I-TGF-β1, ^125I-TGF-β2, or ^125I-TGF-β3 both with and without 100-fold excess of unlabeled TGF-β1, TGF-β2, or TGF-β3 in binding buffer (Ref. 7). After 2.5 hr at 0° C., the cells were washed two times with binding buffer, and the cell-associated radioactivity was determined. […] All experiments were carried out in triplicate cell cultures."}, "[1]": {"system": "type V TGF-β receptor (TβR-V)", "assay": "125I-TGF-β1-affinity labeling of cell-surface type V TGF-β receptor in mink lung epithelial cells", "format": "binding", "conditions": "peptide at 2.3 μM", "experimental": "^125I-TGF-β1-affinity labeling of cell-surface TGF-β receptors in mink lung epithelial cells. Mink lung epithelial cells grown on 60-mm Petri dishes were incubated with 0.1 nM […] the presence of various concentrations of peptide β1^25 (41-65) or peptide β3^25 (41-65) in binding buffer. After 2.5 hr at 0° C., ^125I-TGF-β1-affinity labeling was carried out in the presence of DSS as described. The ^125I-TGF-β1-affinity-labeled TGF-β receptors were analyzed by 5% SDS-polyacrylamide gel electrophoresis under reducing conditions and autoradiography."}, "ear excision wounds": {"system": "ear excision wounds", "assay": "Rabbit ear excision wound model", "format": "in vivo", "conditions": "for scar formation: post-excision day 10", "experimental": "Preparation of IntraSite® gel containing TGF-β peptantagonist (peptide TGF-beta antagonist). 1 ml of sterile 6 mM peptide β1^25 (41-65) in phosphate buffered saline or 1 ml of sterile phosphate buffered saline was vigorously mixed with 3 ml of IntraSite® gel using two 10 ml syringes connected with a three-way connector. […] However, 1.5 mM of peptide β1^25 (41-65) was used throughout the experiments described below.\nExcision wound model. Four pigs received intramuscular injection of ketamine, strenil® and atropine as described above. Six excision injuries were generated by removing full-thickness sections of skin (3×3 cm) from standardized sites on the back of each animal using a scapel. Three rabbits, were anesthetized by intramuscular injection of ketamine (5 mg/kg). Three excision injuries were produced in each by removing full-thickness sections of skin (0.5×1 cm) from each ear. After wounds, a thin layer of IntraSite® gel containing peptide β1^25 (41-65) was applied to alternating wounds on each animal and IntraSite® gel+buffer was applied to the other half. The excision wounds were then dressed with a paraffin gauze. For pig experiments, the dressing was changed every two days for the first 10 days and twice a week for the next 30 days. For rabbit experiments, the dressing was changed for the first 3 days. Gel containing peptide β1^25 (41-65) or control gel was applied at each dressing change.\nMeasurement of scar. The volumes of scar tissue were estimated by multiplying their thickness by the size of the scar on post-burn day 41 in pigs and post-excision day 10 in rabbits."}, "[2]": {"system": "mink lung epithelial cells", "assay": "Blocking of TGF-β1-induced growth inhibition ([methyl-3H]thymidine incorporation, DNA synthesis)", "format": "cell-based", "experimental": "[Methyl-^3H]thymidine Incorporation—Mink lung epithelial cells grown on 24-well clustered dishes were incubated with various concentrations of TGF-β1 in the presence and absence of peptide β1^25 (41-65) or with various concentrations of peptide β1^25 (41-65)-CA, and peptide β1^25 (41-65)-BSA in DMEM containing 0.1% fetal calf serum. After 16 hr at 37° C., the cells were pulsed with 1 μCi/ml of [methyl-^3H]thymidine for 4 hr. The cells were then washed twice with 1 ml of 10% trichloroacetic acid and once with 0.5 ml of ethanol:ether (2:1, v/v). The cells were then dissolved in 0.4 ml of 0.2 N NaOH and counted with a liquid scintillation counter."}}}
{"sequence": "ANFCLGPCPYIWSLDTQYSKVLALY [peptide β1^25 (41-65)]", "values": [{"measurement": "inhibition of 125I-TGF-β1 binding to TGF-β receptors", "setting": "TGF-β receptors", "result": "completely inhibited"}, {"measurement": "inhibition of 125I-TGF-β1-affinity labeling of the type V TGF-β receptor", "setting": "[1]", "result": "almost completely abolished"}, {"measurement": "scar formation", "setting": "ear excision wounds", "result": "attenuated scar formation"}, {"measurement": "volume of scar tissue", "setting": "ear excision wounds; post-excision day 10, n=6, estimated", "result": "0.005±0.01", "unit": "cm^3"}, {"measurement": "scar formation", "setting": "ear excision wounds; listed as TGF-β-peptantagonist", "result": "reduced scarring"}, {"measurement": "blocking of DNA synthesis inhibition induced by TGF-β1", "setting": "[2]; 0.025 ρM and 0.25 ρM TGF-β1, 18 μM peptide", "result": "completely blocked"}, {"measurement": "blocking of TGF-β1-induced growth inhibition, dose dependence", "setting": "[2]; 0.25 ρM TGF-β1, various concentrations of peptide", "result": "concentration-dependent manner"}]}
